Reference: the NIST ThermoML archive (doi:10.1016/j.tca.2012.05.025)
± gives the expanded uncertainty stated by the source.

Test: xn = mol fraction of the nth substance listed
Details: for surface tension liquid-gas: roughened platinum plate-detachment; for viscosity / mass density: 101 kPa, Liquid; for viscosity: Capillary tube (Ostwald / Ubbelohde) method; for mass density: Vibrating tube method

CN(C)CCCO [3-dimethylamino-1-propanol] + O
Details	mass density [kg/m3]	surface tension liquid-gas [mN/m]	viscosity [mPa·s]
298.15 K, x1 = 0.0979	–	36.93 ± 2	–
298.15 K, x1 = 0.1002	978.93 ± 0.11	–	6.617 ± 0.14
298.15 K, x1 = 0.1971	–	35.21 ± 2	–
298.15 K, x1 = 0.201	960.36 ± 0.12	–	14 ± 0.3
298.15 K, x1 = 0.2927	–	33.39 ± 2	–
298.15 K, x1 = 0.297	943.21 ± 0.14	–	19.6 ± 0.4
298.15 K, x1 = 0.3979	–	32.02 ± 2	–
298.15 K, x1 = 0.4001	929.16 ± 0.14	–	20.8 ± 0.4
298.15 K, x1 = 0.4996	–	31.04 ± 2	–
298.15 K, x1 = 0.5013	917.07 ± 0.16	–	19.5 ± 0.4
298.15 K, x1 = 0.5975	–	30.56 ± 2	–
298.15 K, x1 = 0.6019	907.19 ± 0.16	–	15.1 ± 0.3
298.15 K, x1 = 0.6939	899.28 ± 0.18	–	12.3 ± 0.3
298.15 K, x1 = 0.6998	–	29.87 ± 2	–
298.15 K, x1 = 0.7946	–	29.33 ± 2	–
298.15 K, x1 = 0.8006	891.51 ± 0.19	–	9.402 ± 0.2
298.15 K, x1 = 0.8989	885.51 ± 0.21	–	7.474 ± 0.16
298.15 K, x1 = 0.8997	–	28.22 ± 2	–
298.15 K, x1 = 1	880.25 ± 0.24	29.01 ± 2	5.839 ± 0.12
303.15 K, x1 = 0.0979	–	34.56 ± 2	–
303.15 K, x1 = 0.1002	975.53 ± 0.11	–	5.319 ± 0.11
303.15 K, x1 = 0.1971	–	34.17 ± 2	–
303.15 K, x1 = 0.201	956.53 ± 0.12	–	10.8 ± 0.2
303.15 K, x1 = 0.2927	–	31.4 ± 2	–
303.15 K, x1 = 0.297	939.37 ± 0.13	–	14.4 ± 0.3
303.15 K, x1 = 0.3979	–	31.61 ± 2	–
303.15 K, x1 = 0.4001	925.16 ± 0.14	–	15.9 ± 0.3
303.15 K, x1 = 0.4996	–	30.59 ± 2	–
303.15 K, x1 = 0.5013	913.1 ± 0.16	–	15.6 ± 0.3
303.15 K, x1 = 0.5975	–	29.91 ± 2	–
303.15 K, x1 = 0.6019	903.25 ± 0.16	–	11.9 ± 0.3
303.15 K, x1 = 0.6939	895.35 ± 0.18	–	9.94 ± 0.21
303.15 K, x1 = 0.6998	–	29.34 ± 2	–
303.15 K, x1 = 0.7946	–	28.87 ± 2	–
303.15 K, x1 = 0.8006	887.57 ± 0.19	–	7.954 ± 0.17
303.15 K, x1 = 0.8989	881.52 ± 0.21	–	6.226 ± 0.13
303.15 K, x1 = 0.8997	–	27.64 ± 2	–
303.15 K, x1 = 1	876.46 ± 0.24	29.28 ± 2	4.963 ± 0.11
308.15 K, x1 = 0.0979	–	32.51 ± 2	–
308.15 K, x1 = 0.1971	–	32.13 ± 2	–
308.15 K, x1 = 0.2927	–	30.61 ± 2	–
308.15 K, x1 = 0.3979	–	30.51 ± 2	–
308.15 K, x1 = 0.4996	–	30.2 ± 2	–
308.15 K, x1 = 0.5975	–	29.3 ± 2	–
308.15 K, x1 = 0.6998	–	28.72 ± 2	–
308.15 K, x1 = 0.7946	–	28.45 ± 2	–
308.15 K, x1 = 0.8997	–	26.42 ± 2	–
308.15 K, x1 = 1	–	28.88 ± 2	–
313.15 K, x1 = 0.0979	–	32.02 ± 2	–
313.15 K, x1 = 0.1002	968.53 ± 0.12	–	3.808 ± 0.079
313.15 K, x1 = 0.1971	–	31.26 ± 2	–
313.15 K, x1 = 0.201	948.48 ± 0.13	–	7.433 ± 0.15
313.15 K, x1 = 0.2927	–	29.79 ± 2	–
313.15 K, x1 = 0.297	931.17 ± 0.14	–	10.2 ± 0.2
313.15 K, x1 = 0.3979	–	30.12 ± 2	–
313.15 K, x1 = 0.4001	916.99 ± 0.15	–	11 ± 0.2
313.15 K, x1 = 0.4996	–	29.33 ± 2	–
313.15 K, x1 = 0.5013	905.01 ± 0.16	–	10.7 ± 0.2
313.15 K, x1 = 0.5975	–	28.76 ± 2	–
313.15 K, x1 = 0.6019	895.21 ± 0.17	–	8.899 ± 0.18
313.15 K, x1 = 0.6939	887.38 ± 0.18	–	7.649 ± 0.16
313.15 K, x1 = 0.6998	–	28.23 ± 2	–
313.15 K, x1 = 0.7946	–	27.82 ± 2	–
313.15 K, x1 = 0.8006	879.6 ± 0.2	–	6.319 ± 0.13
313.15 K, x1 = 0.8989	873.52 ± 0.21	–	5.192 ± 0.11
313.15 K, x1 = 0.8997	–	26.23 ± 2	–
313.15 K, x1 = 1	868.42 ± 0.24	28.47 ± 2	4.266 ± 0.091
318.15 K, x1 = 0.0979	–	30.72 ± 2	–
318.15 K, x1 = 0.1971	–	29.83 ± 2	–
318.15 K, x1 = 0.2927	–	28.55 ± 2	–
318.15 K, x1 = 0.3979	–	29.78 ± 2	–
318.15 K, x1 = 0.4996	–	28.69 ± 2	–
318.15 K, x1 = 0.5975	–	28.51 ± 2	–
318.15 K, x1 = 0.6998	–	27.87 ± 2	–
318.15 K, x1 = 0.7946	–	27.54 ± 2	–
318.15 K, x1 = 0.8997	–	25.6 ± 2	–
318.15 K, x1 = 1	–	28.13 ± 2	–
323.15 K, x1 = 0.0979	–	28.2 ± 2	–
323.15 K, x1 = 0.1002	961.28 ± 0.12	–	2.743 ± 0.057
323.15 K, x1 = 0.1971	–	29.54 ± 2	–
323.15 K, x1 = 0.201	940.25 ± 0.13	–	4.975 ± 0.1
323.15 K, x1 = 0.2927	–	28.28 ± 2	–
323.15 K, x1 = 0.297	922.77 ± 0.14	–	6.606 ± 0.14
323.15 K, x1 = 0.3979	–	28.91 ± 2	–
323.15 K, x1 = 0.4001	908.62 ± 0.15	–	7.162 ± 0.15
323.15 K, x1 = 0.4996	–	28.65 ± 2	–
323.15 K, x1 = 0.5013	896.72 ± 0.16	–	7.031 ± 0.15
323.15 K, x1 = 0.5975	–	27.57 ± 2	–
323.15 K, x1 = 0.6019	887.02 ± 0.17	–	6.036 ± 0.13
323.15 K, x1 = 0.6939	879.25 ± 0.18	–	5.28 ± 0.11
323.15 K, x1 = 0.6998	–	27.36 ± 2	–
323.15 K, x1 = 0.7946	–	27.1 ± 2	–
323.15 K, x1 = 0.8006	871.47 ± 0.2	–	4.526 ± 0.095
323.15 K, x1 = 0.8989	865.41 ± 0.22	–	3.848 ± 0.081
323.15 K, x1 = 0.8997	–	25.43 ± 2	–
323.15 K, x1 = 1	860.29 ± 0.24	27.63 ± 2	3.253 ± 0.069
333.15 K, x1 = 0.0979	–	26.75 ± 2	–
333.15 K, x1 = 0.1002	953.71 ± 0.12	–	2.169 ± 0.045
333.15 K, x1 = 0.1971	–	28.32 ± 2	–
333.15 K, x1 = 0.201	931.78 ± 0.13	–	3.514 ± 0.073
333.15 K, x1 = 0.2927	–	27.56 ± 2	–
333.15 K, x1 = 0.297	914.15 ± 0.14	–	4.536 ± 0.094
333.15 K, x1 = 0.3979	–	27.91 ± 2	–
333.15 K, x1 = 0.4001	900.04 ± 0.15	–	4.707 ± 0.098
333.15 K, x1 = 0.4996	–	27.54 ± 2	–
333.15 K, x1 = 0.5013	888.25 ± 0.16	–	4.797 ± 0.1
333.15 K, x1 = 0.5975	–	26.74 ± 2	–
333.15 K, x1 = 0.6019	878.64 ± 0.17	–	4.286 ± 0.089
333.15 K, x1 = 0.6939	870.93 ± 0.18	–	3.831 ± 0.08
333.15 K, x1 = 0.6998	–	26.36 ± 2	–
333.15 K, x1 = 0.7946	–	26.32 ± 2	–
333.15 K, x1 = 0.8006	863.22 ± 0.2	–	3.369 ± 0.071
333.15 K, x1 = 0.8989	857.19 ± 0.22	–	2.94 ± 0.062
333.15 K, x1 = 0.8997	–	24.76 ± 2	–
333.15 K, x1 = 1	852.1 ± 0.24	26.81 ± 2	2.768 ± 0.059
343.15 K, x1 = 0.1002	945.85 ± 0.12	–	1.686 ± 0.035
343.15 K, x1 = 0.201	923.1 ± 0.13	–	2.575 ± 0.053
343.15 K, x1 = 0.297	905.31 ± 0.14	–	3.262 ± 0.068
343.15 K, x1 = 0.4001	891.27 ± 0.15	–	3.498 ± 0.073
343.15 K, x1 = 0.5013	879.56 ± 0.16	–	3.428 ± 0.071
343.15 K, x1 = 0.6019	870.06 ± 0.17	–	3.147 ± 0.066
343.15 K, x1 = 0.6939	862.44 ± 0.18	–	2.861 ± 0.06
343.15 K, x1 = 0.8006	854.81 ± 0.2	–	2.579 ± 0.054
343.15 K, x1 = 0.8989	848.84 ± 0.22	–	2.322 ± 0.049
343.15 K, x1 = 1	843.77 ± 0.24	–	2.03 ± 0.043
